The source of these data is US9040529B2 (Vichem Chemie Kutató Kft., priority 2009, dated 2015).

Where a name gives a salt, the structure may show the parent alone.

The target of this assay is T1, human CDK9/CyclinT kinase complex (Homo sapiens, UniProt P50750).
T1 construct: purchased Proqinase 0371-0345-1
The assay is described as follows: In vitro CDK9/CyclinT assay (IMAP fluorescence polarization kinase assay). The class given is biochemical. Particulars: for IC50: 5 nM CDK9/CyclinT, 400 nM TAMRA-Rbtide, 12 μM ATP, 1 hour at room temperature, read-out: CDK9 inhibitory range. Here is the method:
In Vitro CDK9/CyclinT Assay
The activity of the compounds described in the present invention can be determined by the following kinase assay, which measures the phosphorylation of a fluorescently-labeled peptide by human CDK9/CyclinT kinase complex by fluorescent polarization using a commercially available IMAP Screening Express Assay Kit (Molecular devices).
CDK9 kinase assays were performed in low protein binding 384-well plates (Corning 3676). Test compounds were diluted in 100% DMSO to 5 mM stock concentration, then further dilutions were made in H2O or 100% DMSO to desirable concentrations.
Each reaction consisted of 5 nM enzyme: CDK9/CyclinT (Proqinase cat#0371-0345-1), 400 nM TAMRA-Rbtide (synthetic 15-mer peptide derived from human retinoblastoma tumor suppressor protein labelled with TAMRA dye, Genecust Europe), 12 μM ATP (=Kmapp, Sigma-Aldrich) and kinase buffer: 20 mM MOPS pH 7 (Sigma-Aldrich), 1 mM DTT (Sigma-Aldrich), 10 mM MgCl2 (Sigma-Aldrich), 0.01% Tween 20 (Sigma-Aldrich).
For each reaction, 4 or 6 μl containing TAMRA-Rbtide, ATP and kianse buffer were combined with 2 μl diluted compound in H2O or 0.028 μl compound in 100% DMSO. The kinase reaction was started by the addition of 2 μl diluted enzyme. The reaction was allowed to run for 1 hours at room temperature. The reaction was stopped by adding 15 μl IMAP beads (1:400 beads in progressive (100% buffer A) 1× buffer). After an additional 1 hours, fluorescent polarization (Ex: 550-10 nm, Em: 590-10 nm, Dich: 561 nm) was measured using an Analyst GT (Molecular devices).

T1 sequence (P50750 whole entry): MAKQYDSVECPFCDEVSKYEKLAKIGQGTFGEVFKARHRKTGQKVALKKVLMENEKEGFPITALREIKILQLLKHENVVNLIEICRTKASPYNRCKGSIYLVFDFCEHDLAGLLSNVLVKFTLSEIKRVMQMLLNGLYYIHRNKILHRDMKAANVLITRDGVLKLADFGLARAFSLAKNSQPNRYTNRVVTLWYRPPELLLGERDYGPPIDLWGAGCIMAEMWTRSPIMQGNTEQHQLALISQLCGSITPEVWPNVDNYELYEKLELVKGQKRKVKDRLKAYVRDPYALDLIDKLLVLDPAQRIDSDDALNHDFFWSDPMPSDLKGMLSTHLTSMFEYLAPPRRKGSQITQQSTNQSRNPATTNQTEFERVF
T1 sequence (O60563 whole entry partner): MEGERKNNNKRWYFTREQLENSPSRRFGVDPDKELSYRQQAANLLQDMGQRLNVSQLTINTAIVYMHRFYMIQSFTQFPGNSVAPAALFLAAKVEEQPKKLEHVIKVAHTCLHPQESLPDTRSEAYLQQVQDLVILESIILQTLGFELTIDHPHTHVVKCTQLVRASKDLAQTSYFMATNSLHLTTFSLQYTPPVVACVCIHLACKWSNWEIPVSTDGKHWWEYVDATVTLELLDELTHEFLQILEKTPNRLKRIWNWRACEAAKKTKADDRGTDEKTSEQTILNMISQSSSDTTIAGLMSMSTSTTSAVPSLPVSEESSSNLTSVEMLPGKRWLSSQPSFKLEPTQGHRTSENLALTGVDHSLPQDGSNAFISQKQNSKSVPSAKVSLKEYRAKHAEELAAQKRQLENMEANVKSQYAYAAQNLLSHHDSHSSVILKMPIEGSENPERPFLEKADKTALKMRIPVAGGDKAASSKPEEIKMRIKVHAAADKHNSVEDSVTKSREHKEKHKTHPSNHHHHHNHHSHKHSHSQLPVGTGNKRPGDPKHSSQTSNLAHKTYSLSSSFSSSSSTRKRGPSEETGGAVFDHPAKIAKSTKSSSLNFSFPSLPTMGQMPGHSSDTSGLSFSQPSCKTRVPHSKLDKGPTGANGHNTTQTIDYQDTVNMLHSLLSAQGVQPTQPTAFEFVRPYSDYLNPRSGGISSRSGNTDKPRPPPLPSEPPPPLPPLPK

Regarding `CS(=O)(=O)NCc1cccc(Nc2cc(-c3ccccc3COc3ccc(OC(F)(F)F)cc3)ncn2)c1` [Example 30, N-(3-{6-[2-(4-Trifluoromethoxy-phenoxymethyl)-phenyl]-pyrimidin-4-ylamino}-benzyl)-methanesulfonamide], the IC50 is above 10000 nM.
Regarding `CCCOc1ccccc1-c1cc(Nc2cccc(CNS(C)(=O)=O)c2)ncn1` [Example 31, N-{3-[6-(2-Propoxy-phenyl)-pyrimidin-4-ylamino]-benzyl}-methanesulfonamide], the IC50 was below 1000 nM.
Regarding `CS(=O)(=O)NCc1cccc(Nc2cc(-c3cn[nH]c3)ncn2)c1` [Example 32, N-{3-[6-(1H-Pyrazol-4-yl)-pyrimidin-4-ylamino]-benzyl}-methanesulfonamide], the IC50 was below 1000 nM.
With `CS(=O)(=O)NCc1ccc(Nc2cc(Cl)ncn2)cc1` [Example 33, N-[4-(6-Chloro-pyrimidin-4-ylamino)-benzyl]-methanesulfonamide], the IC50 was above 10000 nM.
On the same count and under the same terms, as for `COc1ccccc1-c1cc(Nc2ccc(CNS(C)(=O)=O)cc2)ncn1` [Example 34, N-{4-[6-(2-Methoxy-phenyl)-pyrimidin-4-ylamino]-benzyl}-methanesulfonamide], the figure is below 1000 nM.
In the case of `CS(=O)(=O)NCc1ccc(Nc2cc(-c3ccccc3OCc3ccccc3)ncn2)cc1` [Example 35, N-{4-[6-(2-Benzyloxy-phenyl)-pyrimidin-4-ylamino]-benzyl}-methanesulfonamide], the CDK9 inhibitory effect entry is reported as “nanomolar or low nanomolar range” and the IC50 is below 100 nM.
Turning to `CS(=O)(=O)NCc1ccc(Nc2cc(-c3ccccc3OCc3ccc(F)cc3)ncn2)cc1` [Example 36, N-(4-{6-[2-(4-Fluoro-benzyloxy)-phenyl]-pyrimidin-4-ylamino}-benzyl)-methanesulfonamide], the IC50 is below 1000 nM.
Regarding `CCOc1ccccc1-c1cc(Nc2ccc(CNS(C)(=O)=O)cc2)ncn1` [Example 37, N-{4-[6-(2-Ethoxy-phenyl)-pyrimidin-4-ylamino]-benzyl}-methanesulfonamide], the CDK9 inhibitory effect result is reported as “nanomolar or low nanomolar range” and the IC50 is below 100 nM.
For the compound `COc1ccc(F)cc1-c1cc(Nc2ccc(CNS(C)(=O)=O)cc2)ncn1` [Example 38, N-{4-[6-(5-Fluoro-2-methoxy-phenyl)-pyrimidin-4-ylamino]-benzyl}-methanesulfonamide], the IC50 was below 1000 nM.
As for `COc1cc(F)ccc1-c1cc(Nc2ccc(CNS(C)(=O)=O)cc2)ncn1` [Example 39, N-{4-[6-(4-Fluoro-2-methoxy-phenyl)-pyrimidin-4-ylamino]-benzyl}-methanesulfonamide], the CDK9 inhibitory effect entry is “nanomolar or low nanomolar range” and the IC50 is below 100 nM.
Regarding `CS(=O)(=O)NCc1ccc(Nc2cc(-c3ccccc3Oc3ccccc3)ncn2)cc1` [Example 40, N-{4-[6-(2-Phenoxy-phenyl)-pyrimidin-4-ylamino]-benzyl}-methanesulfonamide], the IC50 is below 1000 nM.
Regarding `CSc1ccccc1-c1cc(Nc2ccc(CNS(C)(=O)=O)cc2)ncn1` [Example 41, N-{4-[6-(2-Methylsulfanyl-phenyl)-pyrimidin-4-ylamino]-benzyl}-methanesulfonamide], the IC50 is below 1000 nM.
As for `CS(=O)(=O)NCc1ccc(Nc2cc(-c3ccc(F)cc3F)ncn2)cc1` [Example 42, N-{4-[6-(2,4-Difluoro-phenyl)-pyrimidin-4-ylamino]-benzyl}-methanesulfonamide], the IC50 is above 10000 nM.
Turning to `CS(=O)(=O)NCc1ccc(Nc2cc(-c3ccccc3C(F)(F)F)ncn2)cc1` [Example 43, N-{4-[6-(2-Trifluoromethyl-phenyl)-pyrimidin-4-ylamino]-benzyl}-methanesulfonamide], the IC50 is above 10000 nM.
Consider `CS(=O)(=O)NCc1ccc(Nc2cc(-c3ccccc3F)ncn2)cc1` [Example 44, N-{4-[6-(2-Fluoro-phenyl)-pyrimidin-4-ylamino]-benzyl}-methanesulfonamide], for which the IC50 is below 10000 nM.
As for `CS(=O)(=O)NCc1ccc(Nc2cc(-c3ccccc3)ncn2)cc1` [Example 45, N-[4-(6-Phenyl-pyrimidin-4-ylamino)-benzyl]-methanesulfonamide], the IC50 is below 10000 nM.
On the same count and under the same terms, as for `CS(=O)(=O)NCc1ccc(Nc2cc(-c3cccc(N)c3)ncn2)cc1` [Example 46, N-{4-[6-(3-Amino-phenyl)-pyrimidin-4-ylamino]-benzyl}-methanesulfonamide hydrochloride], the figure is below 10000 nM.
Same read-out and setting: the value for `COc1cccc(-c2cc(Nc3ccc(CNS(C)(=O)=O)cc3)ncn2)c1` [Example 47, N-{4-[6-(3-Methoxy-phenyl)-pyrimidin-4-ylamino]-benzyl}-methanesulfonamide] was below 10000 nM.
With `CC(C)Oc1cc(F)ccc1-c1cc(Nc2ccc(CNS(C)(=O)=O)cc2)ncn1` [Example 48, N-{4-[6-(4-Fluoro-2-isopropoxy-phenyl)-pyrimidin-4-ylamino]-benzyl}-methanesulfonamide], the CDK9 inhibitory effect result is “nanomolar or low nanomolar range” and the IC50 is below 100 nM.
In the case of `CS(=O)(=O)NCc1ccc(Nc2cc(-c3ccccc3OCc3cccc(F)c3)ncn2)cc1` [Example 49, N-(4-{6-[2-(3-Fluoro-benzyloxy)-phenyl]-pyrimidin-4-ylamino}-benzyl)-methanesulfonamide], the IC50 is below 1000 nM.
As to `COc1ccc(COc2ccccc2-c2cc(Nc3ccc(CNS(C)(=O)=O)cc3)ncn2)cc1` [Example 50, N-(4-{6-[2-(4-Methoxy-benzyloxy)-phenyl]-pyrimidin-4-ylamino}-benzyl)-methanesulfonamide], the IC50 is below 1000 nM.
`CC(C)COc1ccccc1-c1cc(Nc2ccc(CNS(C)(=O)=O)cc2)ncn1` [Example 51, N-{4-[6-(2-Isobutoxy-phenyl)-pyrimidin-4-ylamino]-benzyl}-methanesulfonamide]: the IC50 was below 1000 nM.
Still for that read-out and setting: as for `CS(=O)(=O)NCc1ccc(Nc2cc(-c3cccnc3)ncn2)cc1` [Example 52, N-[4-(6-Pyridin-3-yl-pyrimidin-4-ylamino)-benzyl]-methanesulfonamide], the figure is below 10000 nM.
Regarding `CCCOc1ccccc1-c1cc(Nc2ccc(CNS(C)(=O)=O)cc2)ncn1` [Example 53, N-{4-[6-(2-Propoxy-phenyl)-pyrimidin-4-ylamino]-benzyl}-methanesulfonamide], the CDK9 inhibitory effect result was “nanomolar or low nanomolar range” and the IC50 was below 100 nM.
In the case of `COc1cc(Cl)ccc1-c1cc(Nc2ccc(CNS(C)(=O)=O)cc2)ncn1` [Example 54, N-{4-[6-(4-Chloro-2-methoxy-phenyl)-pyrimidin-4-ylamino]-benzyl}-methanesulfonamide], the CDK9 inhibitory effect entry was “nanomolar or low nanomolar range” and the IC50 is below 100 nM.
For the compound `COc1cccc(-c2cc(Nc3ccc(CNS(C)(=O)=O)cc3)ncn2)c1OC` [Example 55, N-{4-[6-(2,3-Dimethoxy-phenyl)-pyrimidin-4-ylamino]-benzyl}-methanesulfonamide], the IC50 is below 1000 nM.
As to `CC(C)Oc1ccccc1-c1cc(Nc2ccc(CNS(C)(=O)=O)cc2)ncn1` [Example 56, N-{4-[6-(2-Isopropoxy-phenyl)-pyrimidin-4-ylamino]-benzyl}-methanesulfonamide], the CDK9 inhibitory effect result is “nanomolar or low nanomolar range” and the IC50 was below 100 nM.
